# Results taken from US8097625B2, “Combination of sedative and a neurotransmitter modulator, and methods for improving sleep quality and treating depression” (priority 2003, dated 2012).
# Tested on: subjects with insomnia related to major depressive disorder
# Assay: DREAMDD clinical study: subjective sleep and daytime function (IVRS sleep diary)
# Type: in vivo, human
# Conditions: for Subjective Sleep Latency, Mean (SD) / Subjective Sleep Latency, Median / Subjective Total Sleep Time, Mean (SD) / Subjective Total Sleep Time, Median / Subjective Wake Time After Sleep Onset (WASO), Mean (SD) / Subjective Wake Time After Sleep Onset (WASO), Median: 3 mg nightly + fluoxetine, ITT
# Procedure: Depression Response to Eszopiclone in Adults With Major Depressive Disorder (DREAMDD): A Randomized, Double-Blind, Placebo-Controlled, Parallel-Group, 8-Week, Safety and Efficacy Study of Eszopiclone 3 mg Compared to Placebo in Subjects with Insomnia Related to Major Depressive Disorder
# This study was a double-blind randomized, placebo-controlled, parallel group study. […] All subjects must satisfy DSM-IV criteria for insomnia related to major depression.
# In addition, subjects were randomized at Visit 3 (end of baseline) to treatment with one of the following nightly (at bedtime): eszopiclone (3 mg) or matching placebo.
# Primary Analysis: The primary analysis was conducted using the ITT population for the primary efficacy variable, mean WASO during the first week of double-blind medication. This endpoint was computed by averaging the daily WASO values obtained via IVRS from Visit 3 to Visit 4. The analysis was conducted using an analysis of variance model (ANOVA) with treatment and site as fixed effects. The analysis was performed on rank-transformed data, using the SAS MIXED procedure. The cumulative distribution function by treatment was plotted.
# Other Secondary Analyses: Analysis of the secondary subjective sleep parameters, the 1, 2, 3, 4, 6, and 8 week post-randomization and double-blind averages of WASO (except week 1 average, which is the primary efficacy endpoint), TST, SL, mean number of awakenings, depth and quality of sleep, daytime alertness, ability to concentrate, physical well-being and ability to function was conducted on rank-transformed data using the same method as for the primary analysis.
# Sleep Diary Test: Patients are to call between 6 a.m. and 10 a.m. and answer the following questions. 1) Did you take study medication last night? 2) What time did you go to bed to go to sleep last night? 3) Did you fall asleep last night? (If No, go to question 10) 4) How long did it take you to fall asleep last night? Hours+Minutes? 5) Last night, did you wake up during the night, after falling asleep? 5a) How many times, did you wake up after falling asleep? 5b) After falling asleep for the first time, how much total time did you spend awake during the night? Hours+Minutes? 6) How long did you sleep last night? Hours+Minutes? 7) What time did you get out of bed to rise for the day? 8) What number best describes the quality of your sleep last night? (0=poor and 10=excellent) 9) How would you describe the depth of your sleep last night? (0=very light and 10=very deep) 10) What number best describes how you generally felt yesterday during the day? (0=very sleepy and 10=wide awake and alert) 11) What number best describes your ability to concentrate or think clearly during the day yesterday (0=poor, 10=excellent) 12) What number best describes your sense of physical well being yesterday? (0=poor, 10=excellent) 13) How would you describe your ability to function during the day yesterday? (0=poor and 10=excellent)
# Methods: Patients (n=545) met DSM-IV criteria for MDD and insomnia, including reported sleep latency (SL)≧30 min (median 73 min), wake time after sleep onset (WASO) ≧45 min (median 90 min), and total sleep time (TST)≦6.5h (median 294 min). All patients received fluoxetine QAM, and were randomly assigned to double-blind treatment with eszopiclone 3 mg or placebo QHS for 8 weeks. Subjective sleep and daytime function were assessed weekly.
# [1] = each treatment week, p<0.03, 3 mg QHS + fluoxetine QAM, 8 weeks
smiles,measurement,setting,value
"CN1CCN(C(=O)OC2c3nccnc3C(=O)N2c2ccc(Cl)cn2)CC1 (single isomer, unassigned; (+)) [Eszopiclone, (+) 6-(5-chloro-2-pyridinyl)-6,7-dihydro-7-oxo-5H-pyrrolo[3,4b]pyrazin-5-yl 4-methylpiperazine-1-carboxylate]","Subjective Sleep Latency, Mean (SD)",Double-Blind Average,53.0 (52.6) Minutes
same,"Subjective Sleep Latency, Median",Double-Blind Average,39.3 min
same,"Subjective Total Sleep Time, Mean (SD)",Double-Blind Average,395.5 (66.9) Minutes
same,"Subjective Total Sleep Time, Median",Double-Blind Average,400.0 min
same,"Subjective Wake Time After Sleep Onset (WASO), Mean (SD)",Double-Blind Average,72.6 (58.7) Minutes
same,"Subjective Wake Time After Sleep Onset (WASO), Median",Double-Blind Average,57.4 min
same,"Subjective Sleep Latency, Mean (SD)",Week 1,62.6 (61.0) Minutes
same,"Subjective Sleep Latency, Median",Week 1,43.3 min
same,"Subjective Total Sleep Time, Mean (SD)",Week 1,375.9 (76.5) Minutes
same,"Subjective Total Sleep Time, Median",Week 1,380.0 min
same,"Subjective Sleep Latency, Mean (SD)",Week 2,45.0 (52.2) Minutes
same,"Subjective Sleep Latency, Median",Week 2,30.0 min
same,"Subjective Total Sleep Time, Mean (SD)",Week 2,393.6 (103.0) Minutes
same,"Subjective Total Sleep Time, Median",Week 2,397.5 min
same,"Subjective Sleep Latency, Mean (SD)",Week 3,54.1 (100.9) Minutes
same,"Subjective Sleep Latency, Median",Week 3,25.0 min
same,"Subjective Total Sleep Time, Mean (SD)",Week 3,397.3 (88.1) Minutes
same,"Subjective Total Sleep Time, Median",Week 3,405.0 min
same,"Subjective Sleep Latency, Mean (SD)",Week 4,40.5 (50.5) Minutes
same,"Subjective Sleep Latency, Median",Week 4,24.2 min
same,"Subjective Total Sleep Time, Mean (SD)",Week 4,395.6 (87.3) Minutes
same,"Subjective Total Sleep Time, Median",Week 4,390.0 min
same,"Subjective Wake Time After Sleep Onset (WASO), Mean (SD)",Week 4,71.4 (80.3) Minutes
same,"Subjective Wake Time After Sleep Onset (WASO), Median",Week 4,42.5 min
same,"Subjective Sleep Latency, Mean (SD)",Week 6,43.8 (77.3) Minutes
same,"Subjective Sleep Latency, Median",Week 6,20.0 min
same,"Subjective Total Sleep Time, Mean (SD)",Week 6,408.5 (84.3) Minutes
same,"Subjective Total Sleep Time, Median",Week 6,420.0 min
same,"Subjective Wake Time After Sleep Onset (WASO), Mean (SD)",Week 6,76.5 (88.1) Minutes
same,"Subjective Wake Time After Sleep Onset (WASO), Median",Week 6,46.3 min
same,"Subjective Sleep Latency, Mean (SD)",Week 8,42.4 (42.3) Minutes
same,"Subjective Sleep Latency, Median",Week 8,30.0 min
same,"Subjective Total Sleep Time, Mean (SD)",Week 8,405.9 (80.6) Minutes
same,"Subjective Total Sleep Time, Median",Week 8,411.4 min
same,"Subjective Wake Time After Sleep Onset (WASO), Mean (SD)",Week 8,63.8 (74.1) Minutes
same,"Subjective Wake Time After Sleep Onset (WASO), Median",Week 8,43.1 min
same,WASO compared to placebo,"Weeks 1, 3-5, and 7-8, p<0.04, 3 mg QHS + fluoxetine QAM",significantly lower
same,ratings in sleep quality and depth compared to placebo,"across the treatment period, p<0.005, 3 mg QHS + fluoxetine QAM",higher ratings
same,sleep latency (SL) compared to placebo,[1],significantly lower
same,total sleep time (TST) compared to placebo,[1],greater
same,improvement in sleep,"patients with depression-related secondary insomnia, co-administration with fluoxetine",rapid and sustained improvement in sleep
same,"ratings of daytime alertness, ability to concentrate, and well-being compared to placebo","p≦0.02, 3 mg QHS + fluoxetine QAM",higher ratings
